{"source": "patent US20250346938A1", "about": "“ATP-DEPENDENT C-TERMINAL MODIFICATION OF POLYPEPTIDES” (Wisconsin Alumni Research Foundation, priority 2024, published 2025)", "key": {"HsM ccB": {"test_system": "HsM ccB", "experiment": "H. somni MccB-catalyzed peptide thioester synthesis", "assay_type": "biochemical", "conditions": "for thioesterification: Mesna as thiol donor", "method": "Reactions were incubated for 16 hours at room temperature and quenched with addition of an equivalent volume of 0.6% TFA. […] To screen the ability of H. somni M ccB to catalyze thioesterification of HsLACE peptides, reactions contained M ccB ([…]), ATP (5 mM), M gCl2 (5 mM), peptide substrate (0.25 mM), 25 mM M esna or AcCysNHM e, and reaction buffer (100 mM HEPES, pH 8.0).\nH. somni M ccB-catalyzed peptide thioester synthesis. For screening the activity of HsM ccB on HsTeCH, HsLACE1-4, and LACE substrate peptide, […] reactions were prepared that contained 100 mM HEPES, pH 8.0, HsM ccB ([…]), HsTeCH, HsLACE1-4, or LACE peptide ([…]), ATP (5 mM), M gCl2 (5 mM), and thiol (M esna or AcCysNHMe, 25 mM). Reactions were initiated by addition of HsM ccB and incubated for 16-20 h at room temperature. Raw data are available in the Dryad repository at DOI: 10.5061/dryad.c59zw3rkb."}, "M ccB [1]": {"test_system": "M ccB", "experiment": "Screening nucleophiles for MccB-mediated modification of MccA-N7G (LC-TOF MS)", "assay_type": "biochemical, E. coli", "conditions": "HPLC-MS", "method": "Screening nucleophiles for MccB-mediated ligation of synthetic peptide substrates. Nucleophile were dissolved in water and adjusted to neutral pH using paper pH strips (EM D Millipore). Solutions were stored at −80° C. until further use, unless otherwise noted. M ccA-N7G (250 μM) was incubated with 5 μM MccB, 5 mM ATP, and the corresponding concentration of nucleophile in reaction buffer (25 mM Tris pH 8.0, 10 mM M gCl2). Reactions were incubated for 16 hours at room temperature and quenched with addition of an equivalent volume of 0.6% TFA. […] Extracted ion chromatogram (EIC) peak areas were calculated using Agilent TOF Quantitative Analysis v11.0. Percent conversion of substrate to nucleophile-modified product was calculated using the integrated peak areas from the substrate peptide EIC and production EIC using the formula shown below."}, "HpM ccB": {"test_system": "HpM ccB", "sequence (as listed by the source)": "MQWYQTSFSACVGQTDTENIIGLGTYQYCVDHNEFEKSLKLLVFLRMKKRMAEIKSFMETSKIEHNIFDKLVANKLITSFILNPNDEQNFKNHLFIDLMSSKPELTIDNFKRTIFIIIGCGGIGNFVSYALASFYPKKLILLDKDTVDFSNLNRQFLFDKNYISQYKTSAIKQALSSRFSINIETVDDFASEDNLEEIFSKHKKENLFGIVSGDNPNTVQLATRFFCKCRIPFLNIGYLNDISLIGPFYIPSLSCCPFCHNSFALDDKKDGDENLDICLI", "experiment": "C-terminal thioesterification of MccA-N7G peptides by H. pylori MccB (LC-MS)", "assay_type": "biochemical", "conditions": "HpMccB, ATP, Mesna, 16 h"}, "E. coli M ccB [2]": {"test_system": "E. coli M ccB", "experiment": "LC-TOF MS analysis of MccB-catalyzed AMPylation of MccA variants", "assay_type": "biochemical", "conditions": "for formation of stably AMPylated product: HPLC-MS assay", "method": "LC-TOF MS analysis of M ccB reactions with synthetic peptide substrates. […] Reactions were incubated for 16 hours at room temperature and quenched with addition of an equivalent volume of 0.6% TFA. These reaction conditions were used for M ccBs from E. coli, H. pylori, L. johnsonii, and H. somni.\nLC-TOF MS analysis of M ccB-catalyzed N-AM Pylation of M ccA positional scanning peptide library. MccA variants were synthesized individually in-house (according to Solid-phase peptide synthesis) or were purchased from Peptide2.0. […] Reactions were incubated for 16 hours at room temperature and quenched with addition of an equivalent volume of 0.6% TFA. […] Percent conversion was calculated using peak areas from substrate and product EICs. Raw data are available in the Dryad repository at DOI: 10.5061/dryad.c59zw3rkb."}, "E. coli M ccB [3]": {"test_system": "E. coli M ccB", "experiment": "Enzyme-coupled pyrophosphate (PPi) release assay, E. coli MccB", "assay_type": "biochemical", "conditions": "MccA C-terminal variant as substrate for MccB", "text": "FIG. 31. Enzyme-coupled pyrophosphate assay for detection of M ccB-catalyzed pyrophosphate release. M ccB-catalyzes release of pyrophosphate, which is converted to phosphate by inorganic pyrophosphatase (PPiase). Purine nucleoside phosphorylase (PN Pase) uses phosphate as a substrate to convert 2-amino-6-mercapto-7-methylpurine ribonucleoside (M ESG) to ribose 1-phosphate and 2-amino-6-mercapto-7-methylpurine, which absorbs at 360 nm.\nPurine nucleoside phosphorylase (PNP)/inorganic pyrophosphate (IP)-coupled kinetic assays. The kinetics of M ccB-catalyzed adenylation were characterized using an enzyme-coupled assay for detecting formation of pyrophosphate EnzCheck Pyrophosphate Assay Kit (Thermo Fisher Scientific) (FIG. 31). To screen M ccB for adenylation activity with C-terminal variants of MccA, 5 μM of the appropriate MccB variant was incubated with 0.25 mM of each M ccA variant in a reaction with 0.25 mM ATP, 5 mM M gCl2, 0.5 U/mL purine nucleoside phosphorylase (PNP), and 0.5 U/mL inorganic pyrophosphatase (IP). To screen E. coli, H. pylori, and L. johnsonii M ccB homologs for adenylation activity with MccA homologs, 5 μM of the appropriate MccB enzyme was incubated with 0.25 mM of each M ccA variant in a reaction with 0.25 mM ATP, 5 mM M gCI2, 0.5 U/mL purine nucleoside phosphorylase (PNP), and 0.5 U/mL inorganic pyrophosphatase (IP). Reactions containing HpM ccA-N7G and LjM ccA-N 7G peptides also contained 5 mM M esna and 5 mM TCEP. To collect steady-state kinetics data for individual peptide substrates, the peptide concentration was varied from 0-600 μM in a reaction with 5 μM MccB, 0.25 mM ATP, 5 mM MgCl2, 0.5 U/mL purine nucleoside phosphorylase (PNP), and 0.5 U/mL inorganic pyrophosphatase (IP). […] We therefore repeated measurements for the MccA-N7G peptide using an MccB concentration of […] and a substrate concentration range from 0-100 μM. Reactions were initiated with the addition of M ccB and absorbance at 360 nm was monitored using a Tecan Infinite M 200 plate reader. Initial rates of pyrophosphate production were calculated based on the initial rate of absorbance change and the resulting purine analog extinction coefficient (11,000 M-1 cm-1). Reactions were carried out in triplicate and data analysis was performed using GraphPad Prism 10."}, "M ccB [4]": {"test_system": "M ccB", "experiment": "MccB-catalyzed C-terminal thioesterification / Cys ligation of TeCH-tag fusion proteins (intact protein LC-MS)", "assay_type": "biochemical, E. coli", "conditions": "ATP (5 mM), Mesna (5 mM)", "method": "M ccB-mediated ligation of GFP-MccA-N7G protein substrates. GFP-M ccA-N7G variant (50 μM) was incubated with 5 μM MccB, 5 mM ATP, and the appropriate concentration of cysteine or Mesna/TCEP in reaction buffer (25 mM Tris pH 8.0, 10 mM M gCl2). Reactions were incubated at room temperature for the indicated times. For labeling time course experiments, reactions were quenched with the addition of an equivalent volume of 0.6% TFA."}}, "note": "Ends that are not written are not given here.", "data": [{"molecule": "CNC(=O)[C@H](CS)NC(C)=O", "note": "[A cCysNHM e]", "values": [{"measurement": "thiol donor for HsMccB-catalyzed thioesterification", "setting": "HsM ccB", "result": "poor thiol donor"}]}, {"molecule": "O=C(O)Cc1ccc(S)cc1", "note": "[M PAA, 4-mercaptophenylacetic acid]", "values": [{"measurement": "capture of O-AMPylated intermediate / modification of MccA-N7G C terminus by nucleophile", "setting": "M ccB [1]", "result": "inability"}]}, {"molecule": "C#CCCNC(=O)c1ccc(CCNN)cc1", "note": "[N-(but-3-yn-1-yl)-4-(2-hydrazineylethyl)benzamide]", "values": [{"measurement": "capture of O-AMPylated intermediate / modification of MccA-N7G C terminus by nucleophile", "setting": "M ccB [1]", "result": "unable to modify"}]}, {"molecule": "Cl.NO", "note": "[hydroxylamine, hydroxylamine hydrochloride]", "values": [{"measurement": "capture of O-AMPylated intermediate / modification of MccA-N7G C terminus by nucleophile", "setting": "M ccB [1]", "result": "efficient capture"}]}, {"molecule": "Cys-Trp", "values": [{"measurement": "capture of O-AMPylated intermediate / modification of MccA-N7G C terminus by nucleophile", "setting": "M ccB [1]", "result": "no modification"}]}, {"molecule": "LRLRGG (not fully specified (C-terminus))", "values": [{"measurement": "thioesterification", "setting": "HsM ccB", "result": 18, "unit": "%"}]}, {"molecule": "M KLSY RG (MKLSYRG) [HpM ccA-N7G]", "values": [{"measurement": "conversion to C-terminal thioester, yield", "setting": "HpM ccB", "result": "> 97", "unit": "%"}]}, {"molecule": "MHRIMKN (listed as Lactobacillus johnsonii) [LjM ccA, at b127 probably the N7G variant is meant, reference compound]", "values": [{"measurement": "conversion to C-terminal thioester, yield", "setting": "HpM ccB", "result": 13, "unit": "%"}]}, {"molecule": "MLRLRGG (listed as Histophilus somni) [HsLACE4]", "values": [{"measurement": "thioesterification", "setting": "HsM ccB", "result": "< 1", "unit": "%"}]}, {"molecule": "MRTGNAN (listed as Escherichia coli) [wild-type M ccA, reference compound]", "values": [{"measurement": "formation of C-terminally N-AMPylated phosphoramidate product", "setting": "E. coli M ccB [2]; positional scanning library, 16 h", "result": "fully converted"}]}, {"molecule": "MccA-N7A: E. coli MccA (MRTGNAN) with C-terminal Asn varied to Ala (MRTGNAA)", "values": [{"measurement": "formation of stably AMPylated product", "setting": "E. coli M ccB [2]", "result": "no stably A M Pylated product was observed"}, {"measurement": "stimulation of PPi formation", "setting": "E. coli M ccB [3]", "result": "substantial stimulation"}]}, {"molecule": "MccA-N7S: E. coli MccA (MRTGNAN) with C-terminal Asn varied to Ser (MRTGNAS)", "values": [{"measurement": "formation of stably AMPylated product", "setting": "E. coli M ccB [2]", "result": "no stably A M Pylated product was observed"}, {"measurement": "stimulation of PPi formation", "setting": "E. coli M ccB [3]", "result": "substantial stimulation"}]}, {"molecule": "MccA-N7T: E. coli MccA (MRTGNAN) with C-terminal Asn varied to Thr (MRTGNAT)", "values": [{"measurement": "formation of stably AMPylated product", "setting": "E. coli M ccB [2]", "result": "no stably A M Pylated product was observed"}, {"measurement": "stimulation of PPi formation", "setting": "E. coli M ccB [3]", "result": "substantial stimulation"}]}, {"molecule": "PTP 1B 1-321: catalytic domain of protein tyrosine phosphatase 1B with TeCH-tag (SEQ ID NO: 76) (protein, TeCH-tag; N-terminal His tag and TEV protease cleavage site sequence; Linker and MccB recognition sequence) MGHHHHHHDYDIPTTENLYFQGSMEMEKEFEQIDKSGSWAAIYQDIRHEASDFPCRVAKLPKNKNRNRYRDVSPFDHSRIKLHQEDNDYINASLIKMEEAQRSYILTQGPLPNTCGHFWEMVWEQKSRGVVMLNRVMEKGSLKCAQYWPQKEEKEMIFEDTNLKLTLISEDIKSYYTVRQLELENLTTQETREILHFHYTTWPDFGVPESPASFLNFLFKVRESGSLSPEHGPVVVHCSAGIGRSGTFCLADTCLLLMDKRKDPSSVDIKKVLLEMRKFRMGLIQTADQLRFSYLAVIEGAKFIMGDSSVQDQWKELSHEDLEPPPEHIPPPPRPPKRILEPHNGGGGMRTGNAG", "values": [{"measurement": "time to complete conversion to thioester", "setting": "M ccB [4]", "result": 1, "unit": "h"}]}, {"molecule": "protein L: protein L with C-terminal TeCH-tag (SEQ ID NO: 75) (protein, C-terminal TeCH-tag; Linker and MccB recognition sequence) MHHHHHHKEETPETPETDSEEEVTIKANLIFANGSTQTAEFKGTFEKATSEAYAYADTLKKDNGEYTVDVADKGYTLNIKFAGKEKTPEEPKEEVTIKANLIYADGKTQTAEFKGTFEEATAEAYRYADALKKDNGEYTVDVADKGYTLNIKFAGKEKTPEEPKEEVTIKANLIYADGKTQTAEFKGTFEEATAEAYRYADLLAKENGKYTVDVADKGYTLNIKFAGKEKTPEEPKEEVTIKANLIYADGKTQTAEFKGTFAEATAEAYRYADLLAKENGKYTADLEDGGYTINIRFAGKKVDEKPEEKEQVTIKENIYFEDGTVQTATFKGTFAEATAEAYRYADLLSKEHGKYTADLEDGGYTINIRFAGGGGSGGGSMRTGNAG", "values": [{"measurement": "time to complete conversion to thioester", "setting": "M ccB [4]", "result": 16, "unit": "h"}]}, {"molecule": "a-GFP rAb (protein, non-natural residues; cyclised or stapled) light: SDIQMTQSPSSLSASVGDRVTITCRASQSVSSAVAWYQQKPGKAPKLLIYSASSLYSGVPSRFSGSRSGTDFTLTISSLQPEDFATYYCQQSWGLITFGQGTKVEIKRTVAAPSVFIFPPSDSQLKSGTASVVCLLNNFYPREAKVQWKVDNALQSGNSQESVTEQDSKDSTYSLSSTLTLSKADYEKHKVYACEVTHQGLSSPVTKSFNRGEC heavy: EISEVQLVESGGGLVQPGGSLRLSCAASGFNISYYSIHWVRQAPGKGLEWVASIYPYYSSTSYADSVKGRFTISADTSKNTAYLQMNSLRAEDTAVYYCARAGWVASSGMDYWGQGTLVTVSSASTKGPSVFPLAPSSKSTSGGTAALGCLVKDYFPEPVTVSWNSGALTSGVHTFPAVLQSSGLYSLSSVVTVPSSSLGTQTYICNVNHKPSNTKVDKKVEPKSCGGGGGMRTGNAGAFAGAGSK", "values": [{"measurement": "time to complete conversion to thioester", "setting": "M ccB [4]", "result": 16, "unit": "h"}]}]}
